According to EP4175633B1, “THIENO[3,4-C]PYRAZOL-3-YL […] AUTOTAXIN INHIBITORS” (Uni-Pharma Kleon Tsetis Pharmaceutical Laboratories S.A., priority 2020, dated 2022):
Like-named read-outs stand apart in the source and are kept apart here.

Experiments:
human ATX = human ATX (Homo sapiens, UniProt Q13822); experiment: Amplex Red activity assay (ATX inhibition, LPC hydrolysis); format: biochemical
Description: (§1) In a similar approach to TOOS Activity Assay, this widely used method detects the ATX ability to hydrolyze LPC using a test that monitors choline release using Amplex Red fluorescent reagent (10 mM), choline oxidase (0.2 U/mL) and Radish Peroxidase (HRP - 2 U/mL). All reactions were conducted with 2 nM pure ATX and 50 µM LPC (16:0 or 18:0) at 37 °C. Inhibitors (3 mM) were dissolved in dimethyl sulfoxide (DMSO) at concentrations from 0.001 to 5 µmol/L. Fluorescence values were measured on a fluorescent plate reader (Tecan Infinite 200). IC50 values were determined using the values from two independent experiments, using the sigmoid dose-response curve (PrismH software) from the equation f = y0 + a / (1 + exp (- (x-x0) / b) given from SigmaPlot 11.0.
(§2) Subsequently, 50 µL of a buffer solution containing 200 µM LPC 16:0 (final concentration 50 µM) were added to the reaction mixture followed by incubation for another 30 minutes at 37 °C. Finally, 50 µL of working solution containing 200 µM Amplex Red reagent and choline oxidase (0.2 U/mL) κα ? HRP (2 U/mL), in 50 mM Tris-HCl at pH 8.0 and 5 mM CaCl2, was added to begin the reaction. The reaction was monitored at 37 °C, in a fluorescence plate reader (Tecan Infinite 200) using excitation at 530 nm and reading at 590 nm, every five minutes for 30 minutes at 37°C. The IC50 value was calculated from two independent experiments, using the sigmoid dose-response curve (PrismH software) from the equation f=y0+a/(1+exp(-(x-x0)/b) given from SigmaPlot 11.0.
as §2, with “was” for “were”
as §2, with “was” for “were”, “Finally, 50 µL of working solution containing 200 µM Amplex Red reagent and choline oxidase (0.2 U/mL) κα ? HRP (2 U/mL), in 50 mM Tris-HCl at pH 8.0 and 5 mM CaCl2, was added to begin the reaction.” left out
as §2, with “was” for “were”, “Finally, 50 µL of working solution containing 200 µM Amplex Red reagent and choline oxidase (0.2 U/mL) κα ? HRP (2 U/mL), in 50 mM Tris-HCl at pH 8.0 and 5 mM CaCl2, was added to begin the reaction.” left out

mouse ATX = mouse ATX (Mus musculus, UniProt Q9R1E6); experiment: as above; format: biochemical
Description: as §1, §2
as §2, with “was” for “were”, “Finally, 50 µL of working solution containing 200 µM Amplex Red reagent and choline oxidase (0.2 U/mL) κα ? HRP (2 U/mL), in 50 mM Tris-HCl at pH 8.0 and 5 mM CaCl2, was added to begin the reaction.” left out

[1] = human ATX final concentration 1 nM, LPC 16:0 50 µM, 37 °C, two independent experiments, read-out: IC50 value for human ATX inhibition
[2] = ATX final concentration 2 nM, LPC 16:0 50 µM, 37 °C, two independent experiments, read-out: IC50 value for the inhibition of mouse ATX

Row | IC50 (human ATX; [1]) | IC50 (mouse ATX; [2]) | Structure (SMILES) | further results
1 | 3.5 µM | 12.7 µM | O=C(Nc1c2c(nn1-c1ccc(Br)cc1)CSC2)c1cccc2ccccc12 [A4] | 
2 | 1.3 µM | 2.5 µM | O=C(Nc1c2c(nn1-c1cnccn1)CSC2)c1cccc2ccccc12 [A14] | 
3 | 7.5 µM |  | O=C(Nc1c2c(nn1-c1ccncc1)CSC2)c1cccc2ccccc12 [A16] | 

Second part, the compound before the results:

Row | Structure (SMILES) | IC50 (human ATX; [1]) | IC50 (mouse ATX; [2]) | further results
4 | O=C(O)c1ccc(-n2nc3c(c2NC(=O)c2cccc4ccccc24)CSC3)cc1 [A15] |  |  | IC50 (mouse ATX; mATX 2 nM (values without asterisk), read-out: IC50 (µM) (in mATX 2 nM)): 59.3 µM
5 | COC(C(=O)Nc1c2c(nn1-c1ccc(Br)cc1)CSC2)(c1ccccc1)C(F)(F)F (centres unmarked) [A17] | 2 µM |  | 
6 | O=C(Nc1c2c(nn1-c1ccc(Br)cc1)CSC2)c1cc(Cl)cc(Cl)c1 [A18] |  |  | IC50 (human ATX; values marked *: evaluation performed in human ATX (hATX) 1 nM, read-out: IC50 (µM) (in mATX 2 nM)): 2.5 µM
